Where no end group is shown, it is not given here.
Legend:
[1] = system: Vemurafenib-resistant A375 cells; experiment: Cell viability (CCK-8) of Vemurafenib-resistant A375 cells; format: cell-based, human
Protocol: Viability was determined using the CCK-8 reagent (APExBIO-K1018). Absorbance was measured at 450 nm using a Varioskan LUX reader.
Vemurafenib-resistant A375 cells were generated following established protocol. Parental cells were treated with 100 nM Vemurafenib (SelleckChem #S1267) for 2 weeks, followed by stepwise doubling of drug concentration every 2 weeks up to 3.2 µM. Surviving cells in maintenance culture containing 2 µM drug were used for downstream studies.

[2] = In vivo plasma pharmacokinetics; parameters: species or system mouse (C57BL/6); details: male C57BL/6 mouse, 5 mg/kg intraperitoneal, LC-MS/MS
Protocol: Blood samples (100 µl) were obtained at 0, 0.25, 0.5, 1, 2, 4, 8, and 24 h via tail vein bleeds.

[3] = In vitro plasma stability; format: in vitro ADME, mouse (C57BL/6); details: LC-MS/MS
Protocol: Each aliquot (50 µl) was mixed with 150 µl methanol, vortexed, spun, removed the supernatant and reconstituted the pellet with 150 µl 10% formic acid in water. The sample was vortexed and spun, and a 100 µl aliquot was taken, diluted 1:1 with 10 mM ammonium bicarbonate, and analyzed by LC-MS/MS. Using the remaining vs. time dataset, we performed a first-order decay analysis by fitting a linear regression to the natural log-transformed percent remaining values (excluding 0% and t = 0 anchor point) to plot the graph.

[4] = system: B16F10-derived tumors in C57BL/6 mice; experiment: B16F10 melanoma mouse tumor model; format: in vivo; details: CST 10 mg/kg intraperitoneally, three times per week
Protocol: Age-matched male and female C57BL/6 mice (7–9 weeks, n = 9) were subcutaneously injected with 5 × 10⁴ B16-F10 cells in 100 µL PBS. […] Tumor dimensions were measured with calipers, and volume was calculated using the formula V = (length × width²)/2. Mice were euthanized 22 days post-inoculation by inhalational isoflurane, that follow the institutional IACUC protocol and AVMA guideline for Euthanasia of animals (2020). […] Animals were continuously monitored till the loss of righting reflex and response to toe pinch was absent, thus confirming a surgical plane of anesthesia. Tissues were collected when the animals went into deep anesthesia and euthanasia was finally completely by exsanguination. […]
Fixed tumors were paraffin-embedded and sectioned (5 µm). […] The area fraction was calculated as the percentage of pixels that exceeded the threshold within the defined region of interest (ROI). Quantification was performed using Fiji (ImageJ), which computes the area fraction as the ratio of the threshold-positive area to the total ROI area, expressed as a percentage.
Apoptotic nuclei were detected in tumor sections using the CF®594 TUNEL Assay Kit (Biotium #30064). […] Fluorescence images were obtained using a Keyence microscope.
For tissue lysates from wild-type and CST-knockout (CST-KO) mice, 10 µg of total protein was analyzed by immunoblotting using an anti-CST antibody. […]

| Cmax ([2]; ip, plasma from tail vein bleeds 0-24 h, read-out: Cmax (maximum concentration)) | Tmax (time to reach Cmax) ([2]; plasma) | t1/2 (half-life) in vivo ([2]; plasma) | intact material remaining ([3]; in vitro mouse plasma, 5 µg CST/ml, at ~5.6 h) | apparent first-order rate constant k ([3]; in vitro, C57BL/6 mouse plasma spiked with 5 µg CST/ml, aliquots over 24 h, linear regression of ln(% remaining) vs time, R^2 = 0.971) | Compound | cell viability of A375 resistant cells, single agents and combination ([1]; Vemurafenib 2 µM, CST 2 µM, alone or combined, after 48 h) | IC50 of resistant cells relative to parental cells ([1]; Vemurafenib-resistant vs parental A375) | body weight and liver histology [4] |
| --- | --- | --- | --- | --- | --- | --- | --- | --- |
| – | – | – | – | – | CCCS(=O)(=O)Nc1ccc(F)c(C(=O)c2c[nH]c3ncc(-c4ccc(Cl)cc4)cc23)c1F [Vemurafenib] | little effect on cell viability | > 6 fold | – |
| 160 ng/mL | 15 min | 89.4 min | ~ 50% | 0.1246 h⁻¹ | SSMKLSFRARAYGFRGPGPQL [CST, Catestatin] | – | – | No major changes in body weight or liver histology |

Reference: article PMC13369845 (Oncogenesis, 2026)
